From patent US10213464B2, “Method for enhancing engraftment of haematopoetic stem cells” (SCIPHARM SARL, priority 2011, dated 2019)

Key:
[1] = system: (Lin−, c-Kit+, Sca-1+) haematopoetic stem cells; assay: [3H]cAMP accumulation assay in haematopoetic stem cells; type: cell-based, mouse; details: for cAMP accumulation, compound per se: without forskolin, FIG. 4, FIG. 5
Method: Ten mice (C57BL/6) were sacrificed by cervical dislocation. The long bones of the hind limbs (i.e., femora and tibiae) were freed of muscle and connective tissue and flushed with RPMI medium using a syringe and 27½ G needle. The cell suspension was freed from visible connective tissue, collected and transferred to centrifuge tubes. Cells were harvested by centrifugation (1,200 rpm/˜100 g for 5 min) and resuspended in 3 mL erythrocyte lysis buffer (0.15 M NH4Cl, 10 mM KHCO3, 0.1 mM EDTA, pH adjusted to 7.2 to 7.4). The cell suspension was incubated for 2 min at 20° C. followed by 4 min on ice. Thereafter, RPMI (10 mL) was added and the cells were harvested by centrifugation and counted. […] Cells were resuspended in ice-cold PBS (phosphate buffered saline) containing 2% FCS (fetal calf serum) at a cell density of 2.5*10^8 cells/mL to which a cocktail of biotinylated antibodies (“Lineage Cell Depletion Kit” of Miltenyi Biotec) containing lineage-specific antibodies directed against CD5, CD45R (B220), CD11b, GR-1 (=Ly-6G/C), 7-4, and Ter-119 at a ratio of 0.1 mL antibody solution per 10^8 cells. Cells were incubated for 20 min on ice with the antibodies and pelleted by centrifugation. […] Thereafter, the sample was diluted in MACS-buffer (30 mL), the cells were collected by centrifugation and resuspended in 6 mL of MACS-buffer. This suspension was loaded onto prepacked LS columns, which contain ferromagnetic beads coated with a cell-compatible plastic material. Typically three columns were employed for (2 mL cells suspension/column). The flow-through contained the lineage marker-negative cells (Lin^− cells), while the lineage committed cells were retained on the column. Cells were pelleted by centrifugation and resuspended in […]. Lin^−/sca1^+-cells were incubated in 1 mL of stem cell medium (Stem Span SFEM, Stem Cell Tech #09650) containing 0.5 mg/L each, benzylpenicillin and streptomycin, 50 ng/mL each murine stem cell factor (mSCF), human Flt-3, hIL-11 50 ng/mL, m-IL3 (10 ng/mL) (all from PreProTech) 10 μg/mL adenosine deaminase (Roche) and [^3H]adenine (Perkin Elmer, 1 μCi/mL). The preincubation lasted for 4 h at 37° C. […] The cells were then pelleted (5 min at 100 g), the medium was removed and the pellet was lysed in ice-cold 2.5% perchloric acid (0.9 mL) containing 0.1 mM cAMP, held on ice for 1 h and neutralized with 4.2 M KOH (0.1 mL)). Lineage marker-positive cells were preincubated in a similar manner but the medium contained RMPI instead of serum-free stem cell medium. ATP and cAMP were separated by sequential chromatography on columns containing Dowex AG50-X8 and neutral alumina (12). The fact that differences can only be seen in the presence of forskolin is a technical problem—the signal is too low in the absence of forskolin-sensitization to see any differences between the different compounds, i.e. ilo-, beraprost and treprostinil. Sensitization means that cells are sensitized for receptor response as these cells contain extremely low cAMP.

[2] = molecular target: EP4-receptors (Homo sapiens, UniProt P35408); details: reference 10; cited from earlier work
Chain of EP4-receptors (P35408 whole entry): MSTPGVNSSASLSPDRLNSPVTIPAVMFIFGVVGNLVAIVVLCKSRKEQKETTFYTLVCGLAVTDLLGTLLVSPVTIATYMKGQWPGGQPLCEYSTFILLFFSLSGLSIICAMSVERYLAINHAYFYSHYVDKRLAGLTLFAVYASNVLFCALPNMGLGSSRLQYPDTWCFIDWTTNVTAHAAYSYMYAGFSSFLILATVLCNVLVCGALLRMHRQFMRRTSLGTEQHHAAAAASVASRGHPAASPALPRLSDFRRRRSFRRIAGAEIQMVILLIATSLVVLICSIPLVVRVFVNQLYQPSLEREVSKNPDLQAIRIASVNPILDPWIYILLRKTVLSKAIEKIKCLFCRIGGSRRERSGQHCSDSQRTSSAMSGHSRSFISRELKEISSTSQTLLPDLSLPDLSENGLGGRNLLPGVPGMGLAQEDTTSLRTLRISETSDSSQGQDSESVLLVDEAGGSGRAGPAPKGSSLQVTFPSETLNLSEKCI

[3] = system: Lin+ haematopoetic cell fraction; assay: [3H]cAMP accumulation assay in lineage marker-positive cells; type: cell-based, mouse; details: data not shown
Method: Ten mice (C57BL/6) were sacrificed by cervical dislocation. The long bones of the hind limbs (i.e., femora and tibiae) were freed of muscle and connective tissue and flushed with RPMI medium using a syringe and 27½ G needle. The cell suspension was freed from visible connective tissue, collected and transferred to centrifuge tubes. Cells were harvested by centrifugation (1,200 rpm/˜100 g for 5 min) and resuspended in 3 mL erythrocyte lysis buffer (0.15 M NH4Cl, 10 mM KHCO3, 0.1 mM EDTA, pH adjusted to 7.2 to 7.4). The cell suspension was incubated for 2 min at 20° C. followed by 4 min on ice. Thereafter, RPMI (10 mL) was added and the cells were harvested by centrifugation and counted. The typical yield of cells was 3*10^7/mouse. Cells were resuspended in ice-cold PBS (phosphate buffered saline) containing 2% FCS (fetal calf serum) at a cell density of 2.5*10^8 cells/mL to which a cocktail of biotinylated antibodies (“Lineage Cell Depletion Kit” of Miltenyi Biotec) containing lineage-specific antibodies directed against CD5, CD45R (B220), CD11b, GR-1 (=Ly-6G/C), 7-4, and Ter-119 at a ratio of 0.1 mL antibody solution per 10^8 cells. Cells were incubated for 20 min on ice with the antibodies and pelleted by centrifugation. […]

[4] = molecular target: T1, EP3-receptors (Homo sapiens, UniProt P43115); details: Gi-coupled, inhibit cAMP accumulation; cited from earlier work
T1 sequence (P43115 1-390): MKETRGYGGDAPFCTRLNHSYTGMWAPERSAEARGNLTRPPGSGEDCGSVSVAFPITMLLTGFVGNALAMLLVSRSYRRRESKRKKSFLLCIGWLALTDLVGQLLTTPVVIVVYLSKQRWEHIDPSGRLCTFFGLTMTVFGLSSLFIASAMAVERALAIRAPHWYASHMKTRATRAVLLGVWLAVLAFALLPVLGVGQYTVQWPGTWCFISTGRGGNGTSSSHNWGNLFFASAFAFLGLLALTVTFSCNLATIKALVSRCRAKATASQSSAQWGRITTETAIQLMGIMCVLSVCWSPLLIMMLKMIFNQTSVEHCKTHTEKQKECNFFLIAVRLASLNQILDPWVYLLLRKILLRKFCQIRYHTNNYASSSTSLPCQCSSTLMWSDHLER

[5] = system: Lin− (Sca1+ and c-Kit+) haematopoetic stem cells; assay: Bone marrow transplantation: reconstitution of bone marrow in lethally irradiated mice by ex vivo pretreated stem cells; details: FIG. 6
[6] = molecular target: EP2-receptors (Homo sapiens, UniProt P43116); details: reference 10; cited from earlier work
Chain of EP2-receptors (P43116 whole entry): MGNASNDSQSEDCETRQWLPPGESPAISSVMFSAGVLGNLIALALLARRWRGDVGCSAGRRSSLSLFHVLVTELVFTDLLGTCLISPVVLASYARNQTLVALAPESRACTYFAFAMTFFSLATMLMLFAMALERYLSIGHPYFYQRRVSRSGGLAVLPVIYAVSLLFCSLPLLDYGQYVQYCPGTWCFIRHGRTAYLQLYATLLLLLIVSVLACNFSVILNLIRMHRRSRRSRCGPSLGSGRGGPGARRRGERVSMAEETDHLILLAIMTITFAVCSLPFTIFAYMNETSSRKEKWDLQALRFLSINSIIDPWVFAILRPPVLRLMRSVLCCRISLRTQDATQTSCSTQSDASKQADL

[7] = system: haematopoetic stem cells; details: references 7, 8; cited from earlier work
[8] = system: haematopoetic stem cells; details: in vivo; cited from earlier work

With `CC#CCC(C)C(O)C=CC1C(O)CC2Oc3c(CCCC(=O)O)cccc3C21` (stereo not shown) [Beraprost, 2,3,3a,8b-tetrahydro-2-hydroxy-1-(3-hydroxy-4-methyl-1-octen-6-ynyl)-1H-cyclopenta(b)benzofuran-5-butanoic acid] the “cAMP accumulation, compound per se” value ([1]; stimulation 1 h) was “modest accumulation of cAMP”.
For `CC#CCC(C)[C@H](O)/C=C/[C@@H]1[C@H]2C/C(=C/CCCC(=O)O)C[C@H]2C[C@H]1O` (stereo partly drawn) [Iloprost, 5-{(E)-(1S,5S,6R,7R)-7-hydroxy-6[(E)-(3S, 4RS)-3-hydroxy-4-methyl-1-octen-6-inyl]-bi-cyclo[3.3.0]octan-3-ylidene}pentanoic acid], the “cAMP accumulation, compound per se” value ([1]; stimulation 1 h) was “modest accumulation of cAMP”.
For `CCCCC[C@H](O)CC[C@@H]1[C@H]2Cc3cccc(OCC(=O)[O-])c3C[C@H]2C[C@H]1O.[Na+]` [Treprostinil, (1R,2R,3aS,9aS)-[[2,3,3a,4,9,9a-hexahydro-2-hydroxy-1-[(3S)-3-hydroxyoctyl]-1H-benz[f]inden-5-yl]oxy]acetic acid monosodium salt], the “stimulation of EP4-receptors” value [2] is given as “stimulates”, the “cAMP levels in Lin+ cells” value [3] is given as “failed to increase cAMP levels” and the “concentration range of concentration-dependent accumulation of cAMP” value ([1]; FIG. 5) is given as 0.1 to 10 µM. For the same compound, the EC50 ([1]; Mus musculus, concentration-response curve, FIG. 5, read-out: estimated EC50 of cAMP accumulation) was ~300 nM, the “increase in cAMP levels when combined with forskolin” value ([1]; combined with forskolin, stimulation 1 h, FIG. 4) was “exceeded that caused by the IP-(I prostanoid) receptor-specific compounds Iloprost and Beraprost” and the “cAMP accumulation, compound per se” value ([1]; stimulation 1 h, listed as Trepostinil, monosodium salt) was “increase of cAMP is significant”. For the same compound, the “cAMP accumulation, compound per se” value ([1]; stimulation 1 h, monosodium salt) was “modest accumulation of cAMP”, the “agonism at EP3-receptors” value [4] was “low affinity agonist” and the “level of circulating white blood cells” value ([5]; day 60 after injection of 3*10^5 cells pretreated ex vivo with 10 μM for 1 h at 37° C., versus vehicle-treated cells) was “significantly higher levels of circulating white blood cells”. The “effectiveness compared with positive control cholera toxin” value ([5]; ex vivo pretreatment, white blood cell count) was “as effective as the positive control cholera toxin” and the “stimulation of EP2-receptors” value [6] was “stimulates”.
For `CCCCC(C)(C)[C@H](O)/C=C/[C@H]1[C@H](O)CC(=O)[C@@H]1C/C=C\CCCC(=O)O` [dimethyl-PGE2], the “agonism at EP3-receptors” value [4] is given as “full agonist” and the engraftment after pretreatment [7] is given as “enhances their engraftment”.
In the case of cholera toxin, the “(Lin−) precursor cells in the bone marrow after pretreatment” value [8] is listed as “about twice as many”.
